Data on ten substances can be found in patent US20180271945A1, “UROCORTIN 2 ANALOGS AND USES THEREOF” (Research Development Foundation, priority 2009, published 2018).

pEC50: −log10 of the molar value. Where two headings read alike, the source gives them in different places. No end group written: not given here. *: point of attachment. Acm = CC(=O)NC*

One series addresses T1, CRFR2 (Rattus norvegicus, UniProt P47866).
T1 construct: A7r5 cells, which express CRFR2; endogenous in cells; host or cells: A7r5 cells
As to the kind of experiment: stimulation of cAMP accumulation in A7r5 cells. Type of series: cell-based. As for the experimental part: Urocortin 2 precursors were overexpressed in various cell lines, and their function was evaluated. Pancreatic and skin cell lines were infected with mouse urocortin 2 (mUcn 2) lentivirus. The amino acid sequence of mouse urocortin 2 is provided as SEQ ID NO:10. […] The peptide was synthesized and bioactivity was determined by the stimulation of cAMP accumulation in A7r5 cells, which express CRFR2. […] It is possible that R^0mUcn 2 could be further processed by aminopeptidases to mUcn 2(1-38). Number of assays are depicted as a superscript.
The corresponding human analog, R^0hUcn 2, was synthesized.
The EC50S were calculated based on protein determination by immunoassay and chromatographic peak height.

A short description of series [1]: QC reverse phase HPLC (trifluoroacetic acid/acetonitrile) as evidence of solubility/hydrophilicity. Type of series: physicochemical. To be noted: from reverse phase HPLC retention time. From the text:
A peptide extended with a hydrophilic arginine residue such as R^0hUcn 2 is likely more soluble, and therefore, a better pharmaceutical agent, than hUcn 2(1-38). […]

[2] abbreviates: A7r5 cells, EC50s calculated based on protein determination by immunoassay and chromatographic peak height, read-out: cAMP A7r5 (EC50).
Setting [3] is: A7r5 cells, which express CRFR2, range in brackets, number of assays as superscript, read-out: EC50 for stimulation of cAMP accumulation in A7r5 cells.

T1 sequence (P47866 1-431 isoform P47866-2): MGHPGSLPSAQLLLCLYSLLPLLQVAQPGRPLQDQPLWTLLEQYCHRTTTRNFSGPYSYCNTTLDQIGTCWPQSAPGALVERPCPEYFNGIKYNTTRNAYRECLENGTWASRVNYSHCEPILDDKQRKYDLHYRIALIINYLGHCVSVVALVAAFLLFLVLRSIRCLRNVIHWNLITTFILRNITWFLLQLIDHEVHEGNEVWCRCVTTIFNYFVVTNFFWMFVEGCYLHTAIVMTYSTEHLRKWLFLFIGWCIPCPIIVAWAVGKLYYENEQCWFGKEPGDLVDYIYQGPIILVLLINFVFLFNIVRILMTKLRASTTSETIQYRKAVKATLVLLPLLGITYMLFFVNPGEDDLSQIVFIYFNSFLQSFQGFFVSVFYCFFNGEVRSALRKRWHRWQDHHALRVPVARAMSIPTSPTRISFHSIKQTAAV

For the substance “C(Acm)SPTRHPGSRIVLSLDVPIGLLQILLEQARARAAREQATTNARILARVGHC(Acm)-OH [[Cys^1,51 (Acm)]-hUcn 2(1-51)-OH)]”, the pEC50 at CRFR2 (setting [2]) was 8.02.
As for “HPGSRIVLSLDVPIGLLQILLEQARARAAREQATTNARILARV-NH2 [SRP (HPGSR-hUcn 2)]”, the negative logarithm of the EC50 (pEC50) at CRFR2 (setting [2]) is 10.05.
For the substance “IPTFQLRPQNSPQTTPRPAASESPSAAPTWPWAAQSHCSPTRHPGSRIVLSLDVPIGLLQILLEQARARAAREQATTNARILARV-NH2 [hUcn 2 prohormone]”, the pEC50 at CRFR2 was 8.64.
In the case of “IVLSLDVPIGLLQILLEQARARAAREQATTNARILARV-OH [hUcn 2-OH]”, at CRFR2 (setting [2]), the negative-log EC50 (pEC50) was 7.04.
Same read-out and setting: the figure for “IVLSLDVPIGLLQILLEQARARAAREQATTNARILARVG-OH [hUcn 2-G-OH]” is 8.20; for “IVLSLDVPIGLLQILLEQARARAAREQATTNARILARVGH-OH [hUcn 2-GH-OH]” it is 8.54; for “IVLSLDVPIGLLQILLEQARARAAREQATTNARILARVGHC-OH [hUcn 2-GHC-OH]” it is 7.86.
In the case of “RIVLSLDVPIGLLQILLEQARARAAREQATTNARILARV-NH2 [R^0-hUcn 2]”, the negative-log EC50 (pEC50) at CRFR2 (setting [3]) was 10.57. Moreover, in series [1], the “hydrophilicity compared with hUcn 2(1-38)” value was “significantly increased hydrophilicity”.
Regarding “RVILSLDVPIGLLRILLEQARYKAARNQAATNAQILAHV-NH2 [R^0-mUcn 2]”, the pEC50 on CRFR2 (setting [3]) was 10.30.
Substance “TPIPTFQLLPQNSLETTPSSVTSESSSGTTTGPSASWSNSKASPYLDTRVILSLDVPIGLLRILLEQARYKAARNQAATNAQILAHV-NH2 [mUcn 2 prohormone]” showed a pEC50 at CRFR2 of 9.28.

The term pEC50 denotes the EC50 on a negative log10 scale, so that one unit is a factor of ten.
